# Measured values reported in PMC9928118, “Funneling modulatory peptide design with generative models: Discovery and characterization of disruptors of calcineurin protein-protein interactions” (PLOS Computational Biology, 2023).
# Assays:
# [1] = tested on: GST-tagged Cn; experiment: PEPperPRINT peptide microarray binding assay with GST-tagged Cn; conditions: GST-tagged Cn, mean over the duplicate spots (Location on chip)
# Method in brief: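 Qualitative binding: peptides printed on a PEPperPRINT microarray were incubated overnight at 4 °C with 1 mg/ml GST-tagged Cn, then detected with Alexa-Fluor 647 anti-GST antibody. Log fluorescence was baseline-corrected, averaged over duplicate spots, Z-normalized and averaged across five repeats.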
# [2] = tested on: GST-tagged Cn; experiment: as above; conditions: max over the duplicate spots (Location on chip)
Sequence,Chip Fluorescence (mean) [1],Chip Fluorescence (max) [2]
TFWTNPQYKITLEDED [SeqRBMlowT_7336],1.363,2.0782
RNPESPVLELEGHSAS [SeqRBMlowT_6180],0.5231,1.97
KAYMCPYMQFIAGGRK [SeqRBM_8989],0.7869,1.932
RTYINPFMQFTYDGRR [SeqRBMlowT_4071],1.243,1.896
TFWTNPQFKFRLEDPD [SeqRBMlowT_7471],0.6593,2.466
LSSSNPEITVTPAELD [SeqRBMlowT_6234],-0.4808,1.968
HDLQCVINLHENACKT [Seqrandom_9996],-0.1329,2.151
TFWTNPQITVTLAEDD [SeqRBMlowT_3250],1.296,2.572
HVSSSPDVTLKPPQHR [SeqRBMlowT_2147],0.4725,2.217
YRQAVRFEMPLTACAP [Seqrandom_9969],0.771,2.355
YCQWSNRATQIGHKPT [Seqrandom_9979],-0.2818,2.027
HSKLIPKLSIQSPVEH [SeqRBMlowT_3447],0.373,2.177
STPLPQGAPISPNTLA [Seqshuffled_9522],-0.4537,2.383
LNDEIPEVRLNIISAL [SeqRBMlowT_4170],-0.4845,2.3229
RAYDNPVFSFTFDSKG [SeqRBM_7566],0.4256,2.445
KKMSPPCISVHPPDED [SeqRBMlowT_7695],0.511,2.045
RNPGSPVLVLEGHSAA [SeqYPL247C_Zygosaccharomyces_parabailii],-0.2767,2.128
RTYINPFMQFNRGGRK [SeqRBM_3856],0.8441,2.196
RNPESPVLELEGHSSP [SeqRBMlowT_6390],1.113,2.243
LSLYVNALGMESFTIS [SeqRBM_9141],0.3343,2.172

Sequence,Chip Fluorescence (mean) [1],Chip Fluorescence (max) [2]
KAYMNPFMQFIDGGRK [SeqRBMlowT_6686],0.8271,2.02
SSLYENALGIESFTLS [SeqRBMlowT_2888],0.9732,2.496
SDVAQQCLPSQHWSCW [Seqrandom_9997],0.2486,2.401
HPYMGPKIQFHSGGRK [SeqRBM_457],0.3342,2.294
GGPSTPGRQNNPLAPS [SeqRTS1_Zymoseptoria_tritici],-0.03327,2.314
TFFINPQFKASLTEMD [SeqRBM_564],0.5882,2.053
FQTDAPTIPIDQAPIC [SeqRBM_9788],0.3576,1.993
GAYMCPFMSWQDCGQR [SeqRBMlowT_4796],0.4498,2.042
TFWTNPQFRIKLEEPD [SeqRBMlowT_8],-0.1106,2.218
RSKFIPKLSLQSPVHH [SeqRBMlowT_1791],0.1659,2.2877
TFWTNPQYRLKLEEPD [SeqRBMlowT_264],0.9748,2.584
ASSANPEITVTPAELP [SeqRBMlowT_4424],0.4111,2.528
TFWSNPQFKITLEEPD [SeqRBMlowT_5528],0.877,2.1472
KADYTISLILHYDAIE [Seqshuffled_9660],0.7325,1.911
TFWTNPQFKVSLEEPD [SeqRBMlowT_97],0.2931,2.43
AEVGIVRFSRHPVAQD [Seqshuffled_9961],0.06577,2.2
GNKEFSPLNVEGLSGN [Seqshuffled_9463],0.833,2.018
PNKICGQRSFDGEHQN [Seqshuffled_9648],-0.254,2.3848
RQPGSPVLELSGHSAN [SeqRBMlowT_5862],0.5615,2.053
GSLLIPHCDMSAGGSY [SeqRBM_2528],-0.05077,2.002

Sequence,Chip Fluorescence (mean) [1],Chip Fluorescence (max) [2]
PSHSIPKHSWESAVEH [SeqRBM_3394],-0.5716,2.053
WPWCRHPKKRNWLNWH [Seqrandom_9939],1.3152,2.4643
PTNGIPEMQRNSAKSA [Seqshuffled_9538],0.992,2.2337
STASLPSFNFSFLTSS [SeqNUP153_Antrostomus_carolinensis],-0.1064,2.477
SSSAAPEIVVSKPEHN [SeqRBMlowT_9785],-0.01901,2.217
TFWTNPQYKITLEDPD [SeqRBMlowT_219],1.018,2.355
TFWSNPQYRITLEDPD [SeqRBMlowT_78],0.4904,2.0958
STSSLPTFSFSSPLSS [SeqRBMlowT_2357],0.4296,2.106
KAYMCPYGSFTYGGRR [SeqRBM_3412],0.9697,2.568
GFETTPSIVVHVCEED [SeqRBMlowT_1939],0.4497,2.448
TFWTNPQYVITLPEED [SeqRBMlowT_4660],0.3942,1.913
VEALSSRYGMATNLTG [Seqshuffled_4257],0.2313,2.043
RAYINPFMQFTFDSNK [SeqRBMlowT_4738],0.6521,2.119
KKMAPPAINIDPAPTN [SeqRBMlowT_321],-0.1981,2.529
PMKTRGLYGWPPCAKW [Seqrandom_5226],0.996,2.284
PNGSNPETVIKPDWTE [SeqRBM_275],0.6822,1.983
RMYINPFVQFIDGGNR [SeqSFB3_Mycena_chlorophos],-0.09268,2.0812
EPYVAFFYQFSHDPKS [Seqshuffled_9939],-0.878,2.266
